Assay results from US10717749B2, “Macrocyclic sulfondiimine compounds” (BAYER PHARMA AKTIENGESELLSCHAFT, priority 2015, dated 2020).
≈ marks a conversion by molar mass, not a printed value.

Tests used:
[1] = High throughput determination of aqueous drug solubility from DMSO solution (Method 4a); format: physicochemical; details: phosphate buffer, kinetic from dmso stock, pH 6.5, Method 4a
Text: 4. Equilibrium Shake Flask Solubility Assay:
4a) High Throughput Determination of Aqueous Drug Solubility (100 Mmolar in DMSO)
The high throughput screening method to determine aqueous drug solubility is based on: Thomas Onofrey and Greg Kazan, Performance and correlation of a 96-well high throughput screening method to determine aqueous drug solubility, http://wwv.millipore.com/publications.nsf/a73664f9f981 af8c852569b9005b4eee/e565516fb76e7435852 56da30052db77/$FILE/AN1731EN00.pdf
The assay was run in a 96-well plate format. Each well was filled with an individual compound.
All pipetting steps were performed using a robot platform.
100 μl of a 10 mmolar solution of drug in DMSO were concentrated by vacuum centrifugation and resolved in 10 μl DMSO. 990 μl phosphate buffer pH 6.5 were added. The content of DMSO amounts to 1%. The multititer plate was put on a shaker and mixed for 24 hrs at room temperature. 150 μl of the suspension were transferred to a filtration plate. After filtration using a vacuum manifold the filtrate was diluted 1:400 and 1:8000. A second microtiter plate with 20 μl of a 10 mM solution of drug in DMSO served for calibration. Two concentrations (0.005 μM and 0.0025 μM) were prepared by dilution in DMSO/water 1:1 and used for calibration. Filtrate and calibration plates were quantified by HPLC-MS/MS.
The areas of sample- and calibration injections were determined by using mass spectromety software (AB SCIEX: Discovery Quant 2.1.3. and Analyst 1.6.1). The calculation of the solubility value (in mg/l) was executed by an inhouse developed Excel macro.

rat hepatocytes = assay: In vitro metabolic stability in rat hepatocytes; format: in vitro ADME; details: 1 μM
Description: (§1) Caco-2 cells (purchased from DSMZ Braunschweig, Germany) were seeded at a density of 4.5×10^4 cells per well on 24 well insert plates, 0.4 µm pore size, and grown for 15 days in DMEM medium supplemented with 10% fetal bovine serum, 1% GlutaMAX (100×, GIBCO), 100 U/mL penicillin, 100 μg/mL streptomycin (GIBCO) and 1% non essential amino acids (100×). Cells were maintained at 37° C. in a humified 5% CO2 atmosphere. Medium was changed every 2-3 day. Before running the permeation assay, the culture medium was replaced by a FCS-free hepes-carbonate transport buffer (pH 7.2). For assessment of monolayer integrity the transepithelial electrical resistance (TEER) was measured. Test compounds were predissolved in DMSO and added either to the apical or basolateral compartment in final concentration of 2 μM in transport buffer. Before and after 2 h incubation at 37° C. samples were taken from both compartments. Analysis of compound content was done after precipitation with methanol by LC/MS/MS analysis. Permeability (Papp) was calculated in the apical to basolateral (A→B) and basolateral to apical (B→A) directions. The apparent permeability was calculated using following equation: Papp=(Vr/Po)(1/S)(P2/t) Where Vr is the volume of medium in the receiver chamber, Po is the measured peak area or height of the test drug in the donor chamber at t=o, S the surface area of the monolayer, P2 is the measured peak area of the test drug in the acceptor chamber after 2 h of incubation, and t is the incubation time. The efflux ratio basolateral (B) to apical (A) was calculated by dividing the Papp B-A by the Papp A-B. In addition the compound recovery was calculated. 6. Investigation of In Vitro Metabolic Stability in Rat Hepatocytes
Hepatocytes from Han Wistar rats were isolated via a 2-step perfusion method. After perfusion, the liver was carefully removed from the rat: the liver capsule was opened and the hepatocytes were gently shaken out into a Petri dish with ice-cold Williams medium E (purchased from Sigma Aldrich Life Science, St Louis, Mo.). The resulting cell suspension was filtered through sterile gaze in 50 ml falcon tubes and centrifuged at 50×g for 3 min at room temperature. The cell pellet was resuspended in 30 ml WME and centrifuged through a Percoll® gradient for 2 times at 100×g. […] Cell viability was determined by trypan blue exclusion. […] Samples were frozen at −20° C. over night, after subsequently centrifuged for 15 minutes at 3000 rpm and the supernatant was analyzed with an Agilent 1200 HPLC-system with LCMS/MS detection.
The half-life of a test compound was determined from the concentration-time plot. From the half-life the intrinsic clearances were calculated.

Caco-2 permeation assay = format: in vitro ADME; details: human, Caco-2, pH 7.2, test compound 2 μM; for efflux ratio at 2 h, 2 μM: read-out: Efflux ratio (Papp B-A/Papp A-B); for Papp A→B at 2 h, 2 μM: read-out: Papp A-B (Mari); for Papp B→A at 2 h, 2 μM: read-out: Papp B-A (Mari)
Description: 5. Caco-2 Permeation Assay:
as §1

[2] = In vivo pharmacokinetics in rats; details: male, Wistar, rat, plasma, iv; i.v. bolus dosing to rats; read-out: t1/2: terminal half-life (converted)
Description: 7. In Vivo Pharmacokinetics in Rats
For in vivo pharmacokinetic experiments test compounds were administered to male Wistar rats intravenously at doses of 0.3 to 1 mg/kg formulated as solutions using either rat plasma or solubilizers such as PEG400 in well-tolerated amounts.
For pharmacokinetics after intravenous administration test compounds were given as i.v. bolus and blood samples were taken at 2 min, 8 min, 15 min, 30 min, 45 min, 1 h, 2 h, 4 h, 6 h, 8 h and 24 h after dosing. […] Blood was collected into Lithium-Heparin tubes (Monovetten®, Sarstedt) and centrifuged for 15 min at 3000 rpm. An aliquot of 100 μL from the supernatant (plasma) was taken and precipitated by addition of 400 μL ice cold acetonitrile and frozen at −20° C. over night. Samples were subsequently thawed and centrifuged at 3000 rpm, 4° C. for 20 minutes. Aliquots of the supernatants were taken for analytical testing using an Agilent 1200 HPLC-system with LCMS/MS detection. PK parameters were calculated by non-compartmental analysis using a PK calculation software. […]

Compound | solubility thermodynamic at 24 h [1] [µg/mL] | maximal calculated oral bioavailability (Fmax) based on stability data in rat hepatocytes (rat hepatocytes) [%] | efflux ratio at 2 h, 2 μM (Caco-2 permeation assay) | Papp A→B at 2 h, 2 μM (Caco-2 permeation assay) [×10⁻⁶ cm/s] | Papp B→A at 2 h, 2 μM (Caco-2 permeation assay) [×10⁻⁶ cm/s] | half-life [2] [h]
CS(=N)(Cc1cc2cc(c1)OCCCCOc1cc(F)ccc1-c1nc(ncc1F)N2)=NC1CC1 (racemic) [Example 9, (rac)-9-[(N-cyclopropyl-S-methylsulfonodiimidoyl)methyl]-16,20-difluoro-2,3,4,5-tetrahydro-12H-13,17-(azeno)-11,7-(metheno)-1,6,12,14-benzodioxadiazacyclononadecine] | 70 (≈ 140 µM) | – | – | – | – | –
CS(=N)(=N)Cc1cc2nc(c1)OCCCOc1cc(F)ccc1-c1cc(ncc1F)N2 [Example 1, 15,19-difluoro-8-[(S-methylsulfonodiimidoyl)methyl]-3,4-dihydro-2H,11H-10,6-(azeno)-12,16-(metheno)-1,5,11,13-benzodioxadiazacyclooctadecine] | – | 76 | 1.4 | 6.24 | 8.92 | 3.4
CN=S(C)(=N)Cc1cc2cc(c1)OCCCCOc1cc(F)ccc1-c1nc(ncc1F)N2 (racemic) [Example 10, (rac)-9-[(N,S-dimethylsulfonodiimidoyl)methyl]-16,20-difluoro-2,3,4,5-tetrahydro-12H-13,17-(azeno)-11,7-(metheno)-1,6,12,14-benzodioxadiazacyclononadecine] | – | 46 | – | – | – | –
CS(=N)(=N)Cc1cc2cc(c1)OCCCCOc1c(ccc(F)c1F)-c1nc(ncc1F)N2 [Example 6, 16,20,21-trifluoro-9-[(S-methylsulfonodiimidoyl)methyl]-2,3,4,5-tetrahydro-12H-13,17-(azeno)-11,7-(metheno)-1,6,12,14-benzodioxadiazacyclononadecine] | 14 (≈ 29.3 µM) | – | 4.8 | 4.64 | 22.3 | –
CS(=N)(Cc1cc2nc(c1)OCCCOc1cc(F)ccc1-c1cc(ncc1F)N2)=NCCCO (racemic) [Example 2, (rac)-3-(2-{[15,19-difluoro-3,4-dihydro-2H,11H-10,6-(azeno)-12,16-(metheno)-1,5,11,13-benzodioxadiazacyclooctadecin-8-yl]methyl}-2-methyl-2λ^6-diazathia-1,2-dien-1-yl)propan-1-ol] | – | 58 | 23.2 | 0.99 | 22.9 | –
CS(=N)(=N)Cc1cc2cc(c1)OCCCCOc1cc(F)ccc1-c1nc(ncc1F)N2 [Example 5, 16,20-difluoro-9-[(S-methylsulfonodiimidoyl)methyl]-2,3,4,5-tetrahydro-12H-13,17-(azeno)-11,7-(metheno)-1,6,12,14-benzodioxadiazacyclononadecine] | 78 (≈ 170 µM) | 93 | 5 | 4.82 | 24.1 | 6.9
